The text below walks through data of patent publication US6417178B1, “Amyloid binding nitrogen-linked compounds for the antemortem diagnosis of alzheimer's disease, in vivo imaging and prevention of amyloid deposits” (University of Pittsburgh, priority 1994, dated 2002).

Values joined by “and” are separate entries in the source; they are usually repeats but may differ in a detail not shown here. Equal entries are not always repeated. Where two headings read alike, the source gives them in different places.

Data set [1] can be described thus: Octanol/water partitioning. The class given is physicochemical. The note with it: 1-octanol / phosphate buffered saline pH 7.4.
Protocol: The mixture was then centrifuged at 1,000 g to facilitate the formation of two clear phases. […] Concentrations were determined after correction for the molar absorptivity differences in the two solvents and the partition coefficient expressed as the concentration in the octanol layer divided by the concentration in the aqueous layer. Experiments were done in triplicate.
Data set [2] relates to rat pheochromocytoma (PC-12) cells. The note with it: previously reported; cited from earlier work.
For data set [3] the following is noted: guinea pigs; cited from earlier work.
The target in data set [4] is T1, synthetic peptide, Aβ (10-43) (Homo sapiens, UniProt P05067).
T1 construct: The 10-43 amino acid fragment of Aβ was synthesized; made in house; host or cells: chemical (FMOC) peptide synthesis, no expression host
Kind of data set: Inhibition of [14C]Chrysamine G binding to Aβ (10-43). The note with it: for binding affinity in words: inhibition of [14C]Chrysamine G binding to Aβ (10-43), compared with Chrysamine G. The method, then:
Binding assays were performed in 12×75 mm borosilicate glass tubes. […] To the above solution, 25 μl of a 0.36 mg/ml suspension of Aβ (10-43) in H2O was added and 10% ethanol was added to bring the volume to 950 μl. […] The binding mixture was incubated for 30 min at room temperature.
Ki is defined as IC50/(1+[L]/KD ), where [L] is the concentration of [^14C]

The test system of data set [5] is rat pheochromocytoma (PC-12) cells. The note with it: PC-12 cells, MTT reduction (FIG. 14). As for the experimental part:
Rat pheochromocytoma cells (PC-12) were grown in RPMI 1640 media with 10% fetal bovine serum. Approximately 5,000 exponentially growing cells were plated in 96-well plates in a volume of 100 μl of media and allowed to incubate at 37° C. overnight. […] The cells were incubated for 24 hrs prior to the addition of 13.3 μl of 5 mg/ml MTT (3,(4,5-dimethylthiazol-2-yl)2,5-diphenyltetrazolium bromide) in sterile phosphate buffered saline. After 4.5 hrs at 37° C., 100 μl of extraction buffer (20% w/v SDS in 50% DMF/water; pH adjusted to 4.7 with 2.5% of 80% acetic acid and 2.5% 1N HCl) was added and the plates were incubated overnight. Hansen et al., J. Immunol. Methods 119: 203 (1989). Color development was then measured at 560 nm. Maximum viability was defined as the absorbance of control wells to which only the 20 μl of distilled, deionized H2O was added. Maximum toxicity was defined by wells in which the cells were lysed by addition of 0.1% (final concentration) of Triton X-100.

Where [6] appears, read: Ki for inhibition of [14C]Chrysamine G binding to Aβ (10-43), Ki=IC50/(1+[L]/KD), KD 0.26 μM.

T1 sequence (P05067 681-714): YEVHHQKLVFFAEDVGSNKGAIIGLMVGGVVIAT

In the case of `Nc1c(/N=N/c2ccc(-c3ccc(/N=N/c4cc(S(=O)(=O)O)c5ccccc5c4N)cc3)cc2)cc(S(=O)(=O)O)c2ccccc12` [Congo red, reference compound], the octanol/water partition coefficient in data set [1] came to 0.665±0.037. For the same compound, in data set [2], the “concentration achieving complete protection” value was 20 µM and the “concentrations protecting against Aβ-induced toxicity” value was “over 2 μM”. For the same compound, the brain/kidney ratio result in data set [3] is given as “approximately 0.07”. The Ki in data set [4] (setting [6]) is 2820 nM and 2800 nM.

As to `COC(=O)c1cc(N=Nc2ccc(-c3ccc(N=Nc4ccc(O)c(C(=O)OC)c4)cc3)cc2)ccc1O` [CG(COOMe)2, 4,4′-bis(3-methoxycarbonyl-4-hydroxyphenylazo)-biphenyl], the “decrease in affinity / loss of activity relative to Chrysamine G” value in data set [4] is given as “about 200 fold”.

Consider `O=C(O)c1cc(N=Nc2ccc(-c3ccc(N=Nc4ccc(O)c(C(=O)O)c4)c(Cl)c3)cc2Cl)ccc1O` [3,3′-Cl2CG], for which, in data set [4], the “binding affinity in words” value was “about half that of Chrysamine G”.

In data set [4] (setting [6]), `Cc1cc(-c2cc(C)c(N=Nc3ccc(O)c(C(=O)O)c3)c(C)c2)cc(C)c1N=Nc1ccc(O)c(C(=O)O)c1` [tetramethyl analog of Chrysamine G, 4,4′-bis(3-carboxy-4-hydroxyphenylazo)-3,3′,5,5′-tetramethylbiphenyl] came in with a Ki of 750 ± 90 nM. Also, the “binding affinity in words” value in data set [4] is “about twice that of Chrysamine G”.

In the case of `O=C(O)c1cc(N=Nc2ccc(-c3ccc(N=Nc4ccc(O)c(C(=O)O)c4)c(I)c3)cc2I)ccc1O` [3,3′-I2CG], the octanol/water partition coefficient in data set [1] is 112.9±7.3. Also, in data set [4], the “binding affinity in words” value is given as “about half that of Chrysamine G”.

Consider `O=C(O)c1cc(N=Nc2ccc(-c3ccc(N=Nc4ccc(O)c(C(=O)O)c4)c(C(=O)O)c3)cc2C(=O)O)ccc1O` [3,3′-(COOH)2CG], for which the “decrease in affinity / loss of activity relative to Chrysamine G” value in data set [4] is recorded as 7 fold.

As for `O=C(O)c1cc(N=Nc2ccccc2)ccc1O` [aniline derivative], the energy of binding in data set [4] was 5.5 kcal/mol. The Ki in data set [4] (read-out: Ki for inhibition of [14C]Chrysamine G binding to Aβ (10-43)) stood at 73000 nM.

As for `O=C(O)c1cc(N=Nc2ccc(-c3ccc(N=Nc4ccc(O)c(C(=O)O)c4)c(Br)c3)cc2Br)ccc1O` [3,3′-Br2CG], the “binding affinity in words” value in data set [4] is listed as “about half that of Chrysamine G”.

`O=C(O)c1cc(N=Nc2ccc(-c3ccc(N=Nc4ccc(O)c(C(=O)O)c4)cc3S(=O)(=O)O)c(S(=O)(=O)O)c2)ccc1O` [2,2′-(SO3)2CG]: the “binding affinity in words” value in data set [4] is “inactivity”.

With `Oc1ccc(N=Nc2ccc(-c3ccc(N=Nc4ccc(O)cc4)cc3)cc2)cc1` [phenol derivative], in data set [5], the “effect on toxicity induced by 1 μM Aβ (25-35)” value is recorded as “no protective effects”. For the same compound, in data set [4], the “binding affinity in words” value is reported as “completely destroyed binding affinity”.

Take `O=C(O)c1ccccc1O` [salicylic acid, reference compound]: the “binding affinity in words” value in data set [4] is recorded as “total lack of binding activity”.

In turn, `O=C(O)c1cc(F)cc(N=Nc2ccc(-c3ccc(N=Nc4cc(F)cc(C(=O)O)c4O)cc3)cc2)c1O` [(5-FSA)CG, 4,4′-bis(2-hydroxy-3-carboxy-5-fluorophenylazo)-biphenyl] showed a Ki in data set [4] (setting [6]) of 1160 ± 190 nM. In addition, the “binding affinity in words” value in data set [4] is reported as “one-third as potent as Chrysamine G”.
